Measurements reported in patent US12545659B2, “IRAK degraders and uses thereof” (Kymera Therapeutics, Inc., priority 2019, dated 2026).

Target: T1, IRAK4 (Homo sapiens, UniProt Q9NWZ3)
T1 construct: endogenous in cells; host or cells: OCI-LY10
T1 sequence (Q9NWZ3 1-460): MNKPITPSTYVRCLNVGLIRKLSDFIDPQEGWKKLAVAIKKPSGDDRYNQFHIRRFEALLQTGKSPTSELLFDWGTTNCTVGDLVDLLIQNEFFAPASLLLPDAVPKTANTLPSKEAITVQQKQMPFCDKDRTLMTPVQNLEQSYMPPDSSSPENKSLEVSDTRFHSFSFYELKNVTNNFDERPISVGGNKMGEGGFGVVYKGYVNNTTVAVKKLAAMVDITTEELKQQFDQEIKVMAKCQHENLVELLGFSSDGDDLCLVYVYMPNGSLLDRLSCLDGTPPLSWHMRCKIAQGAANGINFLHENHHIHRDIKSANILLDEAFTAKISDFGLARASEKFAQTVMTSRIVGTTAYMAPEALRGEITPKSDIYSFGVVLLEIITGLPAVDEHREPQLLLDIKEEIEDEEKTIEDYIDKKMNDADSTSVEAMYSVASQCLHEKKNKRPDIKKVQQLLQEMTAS
Test: IRAK4 MSD Degradation in OCI-LY10
Type: cell-based
Conditions: OCI-LY10 cells, 4 hrs incubation, read-out: IRAK4 degradation in OCI-LY10 at 4 hrs: DC50
Procedure, shortened: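 IRAK4 remaining in lysates was read by Meso Scale electrochemiluminescence sandwich (2H9 capture, Y279 plus SULFO-TAG detection). Cells were exposed 4 to 24 h at 37 °C to eight 3-fold dilutions from 1 to 10 μM final top; three-parameter logistic fit gave DC50.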

Compound | DC50
Cn1c(=O)n(C2CCC(=O)NC2=O)c2cccc(N3CCN(C[C@H]4CC[C@H](n5cc6cc(NC(=O)c7cccc(C(C)(C)F)n7)c(C(F)F)cc6n5)CC4)CC3)c21 (stereo partly shown) [I-177] | 50 to 100 nM
CN(CCCO[C@H]1C[C@H](Cc2cccc3c2n(C)c(=O)n3C2CCC(=O)NC2=O)C1)C[C@H]1CC[C@H](n2cc3cc(NC(=O)c4cccc(C(F)(F)F)n4)c(C(F)F)cc3n2)CC1 (stereo partly shown) [I-205] | 50 to 100 nM
CN(C[C@H]1CC[C@H](n2cc3cc(NC(=O)c4ccccn4)c(C(C)(C)O)cc3n2)CC1)C1CCN(c2ccc3c(c2)n(C)c(=O)n3C2CCC(=O)NC2=O)CC1 (stereo partly shown) [I-82] | < 50 nM
COc1cc2nn([C@H]3CC[C@H](CN4CCC(c5cccc6c5n(C)c(=O)n6C5CCC(=O)NC5=O)CC4)CC3)cc2cc1NC(=O)c1ccncn1 (stereo partly shown) [I-324] | < 50 nM
Cn1c(=O)n(C2CCC(=O)NC2=O)c2ccc(C3CN(C[C@H]4CC[C@H](n5cc6cc(NC(=O)c7cccc(C(F)(F)F)n7)c(C(F)F)cc6n5)CC4)C3)cc21 (stereo partly shown) [I-264] | < 50 nM
CN(C[C@H]1CC[C@H](n2cc3cc(NC(=O)c4cccc(C(F)(F)F)n4)c(C(F)F)cc3n2)CC1)C1CCN(c2cccc3c2n(C)c(=O)n3C2CCC(=O)NC2=O)CC1 (stereo partly shown) [I-168] | < 50 nM
COc1cc2nn([C@H]3CC[C@H](CN4CCC(c5cccc6c5n(C)c(=O)n6C5CCC(=O)NC5=O)CC4)CC3)cc2cc1NC(=O)c1cccc(C)n1 (stereo partly shown) [I-328] | < 50 nM

Other lines, results leading:

DC50 | Compound
< 50 nM | Cn1c(=O)n(C2CCC(=O)NC2=O)c2cccc(CCOC3CCN(C[C@H]4CC[C@H](n5cc6cc(NC(=O)c7cccc(C(F)(F)F)n7)c(C(C)(C)O)cc6n5)CC4)CC3)c21 (stereo partly shown) [I-267]
< 50 nM | Cn1c(=O)n(C2CCC(=O)NC2=O)c2cccc(CCC3CC4(CCN(C[C@H]5CC[C@H](n6cc7cc(NC(=O)c8cnn9cccnc89)c(C(C)(C)O)cc7n6)CC5)CC4)C3)c21 (stereo partly shown) [I-105]
< 50 nM | Cn1c(=O)n(C2CCC(=O)NC2=O)c2cccc(C[C@H]3C[C@@]4(CC[C@@H](N(C)C[C@H]5CC[C@H](n6cc7cc(NC(=O)c8cccc(C(F)(F)F)n8)c(C(F)F)cc7n6)CC5)CC4)C3)c21 (stereo partly shown) [I-155]
50 to 100 nM | COc1cc2nn([C@H]3CC[C@H](CN4C[C@H]5CC[C@@H](C4)N5c4cccc5c4n(C)c(=O)n5C4CCC(=O)NC4=O)CC3)cc2cc1NC(=O)c1cccc(C(F)(F)F)n1 (stereo partly shown) [I-284]
50 to 100 nM | COc1cc2nn([C@H]3CC[C@H](CN4CCC5(CC4)CN(Cc4cccc6c4n(C)c(=O)n6C4CCC(=O)NC4=O)CCO5)CC3)cc2cc1NC(=O)c1cccc(C(F)(F)F)n1 (stereo partly shown) [I-289]
50 to 100 nM | Cn1c(=O)n(C2CCC(=O)NC2=O)c2cccc(C[C@H]3C[C@]4(CC[C@@H](N(C)C[C@H]5CC[C@H](n6cc7cc(NC(=O)c8cccc(C(F)(F)F)n8)c(C(F)F)cc7n6)CC5)CC4)C3)c21 (stereo partly shown) [I-151]
< 50 nM | COc1cc2nn([C@H]3CC[C@H](CN4CCC(c5cccc6c5n(C)c(=O)n6C5CCC(=O)NC5=O)CC4)CC3)cc2cc1NC(=O)c1cccc(C(F)(F)F)n1 (stereo partly shown) [I-110]
< 50 nM | Cn1c(=O)n(C2CCC(=O)NC2=O)c2cccc(CCN3CCN(C[C@H]4CC[C@H](n5cc6cc(NC(=O)c7cccc(C(F)(F)F)n7)c(C(C)(C)O)cc6n5)CC4)CC3)c21 (stereo partly shown) [I-146]
< 50 nM | COc1cc2nn([C@H]3CC[C@H](CN(C)C4CCN(c5ccc6c(c5)n(C)c(=O)n6C5CCC(=O)NC5=O)CC4)CC3)cc2cc1NC(=O)c1cccc(C(F)(F)F)n1 (stereo partly shown) [I-107]
50 to 100 nM | CN(C[C@H]1CC[C@H](n2cc3cc(NC(=O)c4cccc(C(F)(F)F)n4)c(C(F)F)cc3n2)CC1)C1CCC2(CC1)CC(Cc1cccc3c1n(C)c(=O)n3C1CCC(=O)NC1=O)C2 (stereo partly shown) [I-278]

Same assay, conditions: OCI-LY10 cells, 24 hrs incubation, read-out: IRAK4 degradation in OCI-LY10 at 24 hrs: DC50

Compound | DC50
CN(CCCO[C@H]1C[C@H](Nc2cccc3c2C(=O)N(C2CCC(=O)NC2=O)C3=O)C1)C[C@]1(C)Cc2cc(NC(=O)c3cccc(C(F)(F)F)n3)c(N3CCOCC3)cc2O1 (stereo partly drawn) [I-330, N-[(2S)-2-[[3-[3-[[2-(2,6-dioxo-3-piperidyl)-1,3-dioxo-isoindolin-4-yl]amino]cyclobutoxy]propyl-methyl-amino]methyl]-2-methyl-6-morpholino-3H-benzofuran-5-yl]-6-(trifluoromethyl)pyridine-2-carboxamide] | 500 to 1000 nM
CN(C[C@H]1CC[C@H](n2cc3cc(NC(=O)c4cccc(C(C)(C)F)n4)c(C(C)(C)O)cc3n2)CC1)[C@H]1CC[C@H](CNc2cccc3c2C(=O)N(C2CCC(=O)NC2=O)C3=O)CC1 (stereo partly shown) [I-58] | 50 to 100 nM
O=C1CCC(N2C(=O)c3ccc(NCC4CC5(C4)CN(C[C@H]4CC[C@H](n6cc7cc(NC(=O)c8cccc(S(F)(F)(F)(F)F)n8)c(N8CCCCC8)cc7n6)CC4)C5)cc3C2=O)C(=O)N1 (stereo partly shown) [I-297] | 100 to 500 nM
COc1c(NC(=O)c2cccc(C(C)(F)F)n2)cc2cn([C@H]3CC[C@H](CN4CC5(CC(CCNc6cccc7c6C(=O)N(C6CCC(=O)NC6=O)C7=O)C5)C4)CC3)nc2c1C (stereo partly shown) [I-188] | 50 to 100 nM
CN(CCCO[C@H]1C[C@H](Nc2cccc3c2C(=O)N(C2CCC(=O)NC2=O)C3=O)C1)C[C@H]1CC[C@H](n2cc3cc(N(C)C(=O)c4cccc(C(F)(F)F)n4)c(C(C)(C)O)cc3n2)CC1 (stereo partly shown) [I-225] | 500 to 1000 nM
COc1cc2nn([C@H]3CC[C@H](CN(C)CCCN4CCOC(CNc5cccc6c5C(=O)N(C5CCC(=O)NC5=O)C6=O)C4)CC3)cc2cc1NC(=O)c1cccc(C(C)(F)F)n1 (stereo partly shown) [I-91] | 50 to 100 nM
COc1cc2nn([C@H]3CC[C@H](CN4CC5(CC(CCNc6cccc7c6C(=O)N(C6CCC(=O)NC6=O)C7=O)C5)C4)CC3)cc2cc1-n1ccc2ccccc2c1=O (stereo partly shown) [I-286] | 50 to 100 nM

Other lines, results leading:

DC50 | Compound
50 to 100 nM | COc1cc2nn([C@H]3CC[C@H](CN4CCC5(CC4)CC(CCNc4cccc6c4C(=O)C(C4CCC(=O)NC4=O)C6=O)C5)CC3)cc2cc1NC(=O)c1ccnc(C)n1 (stereo partly shown) [I-120]
50 to 100 nM | COc1cc2nn([C@H]3CC[C@H](CN(C)C4CCC5(CC4)CC(CNc4cccc6c4C(=O)N(C4CCC(=O)NC4=O)C6=O)C5)CC3)cc2cc1NC(=O)c1cccc(-c2cnn(C)c2)n1 (stereo partly shown) [I-219]
500 to 1000 nM | O=C1CCC(N2C(=O)c3cccc(NCCC4CC5(CCN(C[C@H]6CC[C@H](c7nc8cc(N9CCOCC9)c(NC(=O)c9cccc(C(F)(F)F)n9)cc8o7)CC6)CC5)C4)c3C2=O)C(=O)N1 (stereo partly shown) [I-199]
500 to 1000 nM | CN[C@@H](C)C(=O)N[C@H](C(=O)N1Cc2cc(OCCCC3CC4(CCN(C[C@H]5CC[C@H](n6cc7cc(NC(=O)c8cccc(C(F)(F)F)n8)c(OC)cc7n6)CC5)CC4)C3)ccc2C[C@H]1C(=O)N[C@@H]1CCCc2ccccc21)C(C)(C)C [I-186, (3S)-2-[(2S)-3,3-Dimethyl-2-[[(2S)-2-(methylamino)propanoyl]amino]butanoyl]-7-[3-[7-[[4-[6-methoxy-5-[[6-(trifluoromethyl)pyridine-2-carbonyl]amino]indazol-2-yl]cyclohexyl]methyl]-7-azaspiro[3.5]nonan-2-yl]propoxy]-N-[(1R)-tetralin-1-yl]-3,4-dihydro-1H-isoquinoline-3-carboxamide]
< 50 nM | COc1cc2nn([C@H]3CC[C@H](CN4CC5(CC(CCNc6cccc7c6C(=O)N([C@H]6CCC(=O)NC6=O)C7=O)C5)C4)CC3)cc2cc1NC(=O)c1cccc(C(C)(F)F)n1 [I-255, 6-(1,1-Difluoroethyl)-N-[2-[4-[[6-[2-[[2-[(3S)-2,6-dioxo-3-piperidyl]-1,3-dioxo-isoindolin-4-yl]amino]ethyl]-2-azaspiro[3.3]heptan-2-yl]methyl]cyclohexyl]-6-methoxy-indazol-5-yl]pyridine-2-carboxamide]
< 50 nM | CN(C[C@H]1CC[C@H](n2cc3cc(NC(=O)c4cccc(C(F)(F)F)n4)c(C(C)(C)O)cc3n2)CC1)[C@H]1CC[C@]2(CC1)C[C@H](Nc1cccc3c1C(=O)N(C1CCC(=O)NC1=O)C3=O)C2 (stereo partly shown) [I-124]
50 to 100 nM | COc1cc2nn([C@H]3CC[C@H](CN4CCO[C@@H](CCNc5cccc6c5C(=O)N(C5CCC(=O)NC5=O)C6=O)C4)CC3)cc2cc1NC(=O)c1cccc(C(F)(F)F)n1 (stereo partly shown) [I-71]
< 50 nM | CC(C)(O)c1cc2nn([C@H]3CC[C@H](CN4CCC5(CC4)CC(Nc4cccc6c4C(=O)N(C4CCC(=O)NC4=O)C6=O)C5)CC3)cc2cc1NC(=O)c1cccc(C(F)(F)F)n1 (stereo partly shown) [I-35, N-[2-[4-[[2-[[2-(2,6-dioxo-3-piperidyl)-1,3-dioxo-isoindolin-4-yl]amino]-7-azaspiro [3.5]nonan-7-yl]methyl]cyclohexyl]-6-(1-hydroxy-1-methyl-ethyl)indazol-5-yl]-6-(trifluoromethyl)pyridine-2-carboxamide]
< 50 nM | CN(C[C@H]1CC[C@H](n2cc3cc(NC(=O)c4cccc(C(F)(F)F)n4)c(C(C)(C)O)cc3n2)CC1)C1CCC2(CC1)CC(Nc1cccc3c1C(=O)N(C1CCC(=O)NC1=O)C3=O)C2 (stereo partly shown) [I-238]
500 to 1000 nM | CN[C@@H](C)C(=O)N[C@H](C(=O)N1CCC[C@H]1c1nc(C(=O)c2cccc(OCCCC3CC4(CCN(C[C@H]5CC[C@H](n6cc7cc(NC(=O)c8cccc(C(F)(F)F)n8)c(OC)cc7n6)CC5)CC4)C3)c2)cs1)C1CCCCC1 [I-181, N-[2-[4-[[2-[3-[3-[2-[(2S)-1-[(2S)-2-cyclohexyl-2-[[(2S)-2-(methylamino)propanoyl]amino]acetyl]pyrrolidin-2-yl]thiazole-4-carbonyl]phenoxy]propyl]-7-azaspiro[3.5]nonan-7-yl]methyl]cyclohexyl]-6-methoxy-indazol-5-yl]-6-(trifluoromethyl)pyridine-2-carboxamide]
